# Results: patent US5629332A, “Triazole compound and use thereof” (Nihon Nohyaku Co., Ltd., priority 1994, dated 1997)
# Legend:
# [1] = test system: C. albicans IFO 1270; assay: survival of mice after intravenous inoculation with C. albicans, oral treatment (Test Example 2, Table 3); type: in vivo; details: 10 mg/kg orally once a day for 3 consecutive days, 10 days after inoculation, male ddy mice; for responders at 10 mg/kg: Candida albicans, IFO1270, po, 240 h, read-out: Survival ratio (%)
# Experimental: Male ddy mice at six weeks of age were divided into a control group of 10 animals and drug administration groups of 5 animals each.
# Subculture was carried out at 37° C. for 24 hrs Sabouraudp's glucose agar (manufactured by Difco laboratory).
# A cell suspension of C. albicans IFO 1270 (2.5×10^7 cells/ml) was intravenously inoculated in an amount of 4 ml/kg, and each test compound was orally administered in a dose of 10 mg/kg once a day for 3 consecutive days. Examination of survival ratio was carried out 10 days after the inoculation of fungi.
# [2] = test system: Candida albicans IFO 1270; assay: growth inhibition of Candida albicans IFO 1270 in culture (Test Example 1, Table 2); type: cell-based; details: 37° C., Sabouraud's glucose broth; for inhibition of growth at 0.1 µg/mL / inhibition of growth at 10 µg/mL: Candida albicans, IFO1270, 48 h; for inhibition of growth at 0.1 µg/mL / Growth inhibition ratio (%) 0.1 μg/ml: final compound concentration 0.1 μg/ml; for inhibition of growth at 0.1 µg/mL: read-out: Growth inhibition ratio (%) 0.1 μg/ml; for inhibition of growth at 10 µg/mL / Growth inhibition ratio (%) 10 μg/ml: final compound concentration 10 μg/ml; for inhibition of growth at 10 µg/mL: read-out: Growth inhibition ratio (%) 10 μg/ml; for Growth inhibition ratio (%) 0.1 μg/ml / Growth inhibition ratio (%) 10 μg/ml: 48 hrs
# Experimental: A 0.1 ml portion of a cell suspension of Candida albicans IFO 1270 (1.0×10^7 cells/ml) and a 0.1 ml portion of each test compound dissolved in dimethylsulfoxide were added to 9.8 ml of Sabouraudp's glucose broth.
# Final compound concentrations in the culture were 10 μg/ml or 0.1 μg/ml. After incubation On a reciprocal shaker at 37° C. for 48 hrs, growth inhibition ratio of each test compound was measured.
compound,measurement,setting,value
CC(Cc1ccc(C(F)(F)F)cc1)C(O)(Cn1cncn1)c1ccc(F)cc1F (centres unmarked) [compound 43],responders at 10 mg/kg,[1],100%
CC(Cc1cccnc1)C(O)(Cn1cncn1)c1ccc(F)cc1F (centres unmarked) [compound 18],responders at 10 mg/kg,[1],40%
CC(Cc1ccc(Cl)cc1SC(F)F)C(O)(Cn1cncn1)c1ccc(F)cc1F (centres unmarked) [compound 20],inhibition of growth at 0.1 µg/mL,[2],53%
same,inhibition of growth at 10 µg/mL,[2],68%
same,responders at 10 mg/kg,[1],100%
CC(Cn1cncn1)C(O)(Cn1cncn1)c1ccc(F)cc1 (centres unmarked) [compound 14],inhibition of growth at 0.1 µg/mL,[2],2%
same,inhibition of growth at 10 µg/mL,[2],20%
same,responders at 10 mg/kg,[1],20%
CC(Cc1ccc([N+](=O)[O-])cc1)C(O)(Cn1cncn1)c1ccc(F)cc1F (centres unmarked) [compound 22],inhibition of growth at 0.1 µg/mL,[2],58%
same,inhibition of growth at 10 µg/mL,[2],70%
same,responders at 10 mg/kg,[1],100%
"CC(=O)N1CCN(c2ccc(OC[C@H]3CO[C@](Cn4ccnc4)(c4ccc(Cl)cc4Cl)O3)cc2)CC1 (relative stereo) [Control drug A, cis1-acetyl-4-[4-[[2-(2,4-dichlorophenyl)-2-(imidazol-1-ylmethyl)-1,3-dioolan-4-yl]methoxy]phenyl]piperazine, reference compound]",inhibition of growth at 0.1 µg/mL,[2],59%
same,inhibition of growth at 10 µg/mL,[2],77%
same,responders at 10 mg/kg,[1],20%
CSc1cc(Cl)ccc1CC(C)C(O)(Cn1cncn1)c1ccc(F)cc1F (centres unmarked) [compound 39],inhibition of growth at 0.1 µg/mL,[2],53%
same,inhibition of growth at 10 µg/mL,[2],68%
same,responders at 10 mg/kg,[1],100%
"CC(Cc1ccc(C#N)cc1)C(O)(Cn1cncn1)c1ccc(F)cc1F (centres unmarked) [compound 7, 1-triazolyl-2-(2,4-difluorophenyl)-3-methyl-4-(4-cyanophenyl)-2-butanol]",inhibition of growth at 0.1 µg/mL,[2],53%
same,inhibition of growth at 10 µg/mL,[2],74%
same,responders at 10 mg/kg,[1],100%
CC(Cc1ccc(F)cc1)C(O)(Cn1cncn1)c1ccc(F)cc1F (centres unmarked) [Compound No. 1],inhibition of growth at 0.1 µg/mL,[2],71%
same,inhibition of growth at 10 µg/mL,[2],85%
same,responders at 10 mg/kg,[1],80%
CC(Cc1ccc(C=NNC=O)cc1)C(O)(Cn1cncn1)c1ccc(F)cc1F (centres unmarked) [compound 27],responders at 10 mg/kg,[1],40%
"2-(2,4-difluorophenyl)-2-[1-methyl-2-(4-fluorophenyl)-ethyl]-1-triazolyl-2-ethanol [compound 11]",Growth inhibition ratio (%) 0.1 μg/ml,[2],45%
same,Growth inhibition ratio (%) 10 μg/ml,[2],74%
same,Survival ratio (%),[1],60%
CC(Cc1ccc(-n2cnn(C)c2=O)cc1)C(O)(Cn1cncn1)c1ccc(F)cc1F (centres unmarked) [compound 31],responders at 10 mg/kg,[1],80%
CC(Cc1ccc(F)cc1F)C(O)(Cn1cncn1)c1ccc(F)cc1F (centres unmarked) [compound 32],responders at 10 mg/kg,[1],80%
CC(CSc1nccn1C)C(O)(Cn1cncn1)c1ccc(F)cc1 (centres unmarked) [compound 5],inhibition of growth at 0.1 µg/mL,[2],5%
same,inhibition of growth at 10 µg/mL,[2],10%
same,responders at 10 mg/kg,[1],0%
CC(Cc1ccc(-n2cncn2)cc1)C(O)(Cn1cncn1)c1ccc(F)cc1F (centres unmarked) [compound 16],Survival ratio (%),[1],100%
"CC(CCc1ccc(-n2cncn2)cc1)C(O)(Cn1cncn1)c1ccc(F)cc1F (centres unmarked) [compound 37, 2-(2,4-difluorophenyl)-3-methyl-5-(4-triazolphenyl)-1-triazolyl-pentan-2-ol]",responders at 10 mg/kg,[1],80%
CC(Cc1ccc(-n2cncn2)cc1)C(O)(Cn1cncn1)c1ccc(F)cc1F (centres unmarked) [compound 17],Survival ratio (%),[1],60%
CC(CCCc1ccc(Cl)cc1)C(O)(Cn1cncn1)c1ccc(F)cc1F (centres unmarked) [compound 2],inhibition of growth at 0.1 µg/mL,[2],60%
same,inhibition of growth at 10 µg/mL,[2],76%
same,responders at 10 mg/kg,[1],80%
CC(CCc1ccc(F)cc1)C(O)(Cn1cncn1)c1ccc(F)cc1F (centres unmarked) [compound 25],inhibition of growth at 0.1 µg/mL,[2],60%
same,inhibition of growth at 10 µg/mL,[2],70%
"CC(Cc1ccc(C#N)cc1)C(O)(Cn1cncn1)c1ccc(F)cc1F (single isomer, unassigned) [compound 8, 1-triazolyl-2-(2,4-difluorophenyl)-3-methyl-4-(4-cyanophenyl)-2-butanol]",inhibition of growth at 0.1 µg/mL,[2],59%
same,inhibition of growth at 10 µg/mL,[2],78%
same,responders at 10 mg/kg,[1],100%
CC(Cc1ccc(OC(F)(F)F)cc1)C(O)(Cn1cncn1)c1ccc(F)cc1F (centres unmarked) [Compound No. 10],responders at 10 mg/kg,[1],100%
CC(Cc1ccc(S(C)(=O)=O)cc1)C(O)(Cn1cncn1)c1ccc(F)cc1F (centres unmarked) [compound 30],inhibition of growth at 0.1 µg/mL,[2],6%
same,inhibition of growth at 10 µg/mL,[2],63%
same,responders at 10 mg/kg,[1],100%
"CC(CSc1ccc(F)cc1)C(O)(Cn1cncn1)c1ccc(F)cc1 (centres unmarked) [compound 4, 1-triazolyl-2-(4-fluorophenyl)-3-methyl-4-(4-fluorophenyl)-mercapto-2-butanol]",inhibition of growth at 0.1 µg/mL,[2],6%
same,inhibition of growth at 10 µg/mL,[2],72%
same,responders at 10 mg/kg,[1],0%
CC(CCCc1ccc(Cl)cc1)C(O)(Cn1cncn1)c1ccc(F)cc1F (centres unmarked) [compound 3],Growth inhibition ratio (%) 0.1 μg/ml,[2],58%
same,Growth inhibition ratio (%) 10 μg/ml,[2],74%
same,Survival ratio (%),[1],60%
CC(Cc1ccc(Cl)cc1Cl)C(O)(Cn1cncn1)c1ccc(F)cc1F (centres unmarked) [compound 28],responders at 10 mg/kg,[1],100%
CC(CCc1ccc(C#N)cc1)C(O)(Cn1cncn1)c1ccc(F)cc1F (centres unmarked) [compound 35],inhibition of growth at 0.1 µg/mL,[2],60%
same,inhibition of growth at 10 µg/mL,[2],74%
CC(Cc1ccc(-n2cncn2)cc1)C(O)(Cn1cncn1)c1ccc(F)cc1F (centres unmarked) [compound 15],inhibition of growth at 0.1 µg/mL,[2],53%
same,inhibition of growth at 10 µg/mL,[2],66%
same,Survival ratio (%),[1],100%
